Data as given in patent EP0167945A2, “Phenylethylaminopropiophenone derivatives, process for their preparation et medicines containing them” (Troponwerke GmbH & Co. KG, priority 1984, dated 1986).
Where a name gives a salt, the structure may show the parent alone.

Key:
[1] = system: durch Tetrabenazin induzierte Ptosis; assay: Tetrabenazine antagonism (antagonism of tetrabenazine-induced ptosis); type: in vivo, Mäusen; conditions: Mus musculus, ip; dose at which ptosis induced by 20 mg/kg i.p. Tetrabenazin is reduced by 50 %; mice; read-out: DE50 (the source's name)
Excerpt: (§1) Die Verbindungen wurden auf anxiolytische, nootrope und antidepressive Eigenschaften geprüft. Als Leittest für die anxiolytische Wirkung diente die Antagonisierung der Fußschock-induzierten Aggressivität nach Tedeschi^1; für die antidepressive Wirkung der Antitetrabenazin^2- und Amphetaminpotenzierungstest . Beispielsweise wurden für die antidepressiven Wirkungen der erfindungsgemäßen Substanzen folgende Werte erhalten:
1) Tetrabenazin Antagonismus
Antidepressiv wirksame Substanzen antagonisieren die durch Tetrabenazin induzierte Ptosis bei Mäusen. Der DE50-Wert gibt diejenige Dosis an, bei der die durch 20 mg/kg i.p. Tetrabenazin induzierte Ptosis zu 50 % reduziert ist. Dazu seien Beispiele genannt:
• 1 Tedeschi et al., J. Pharmacol. Exp. Ther. 129, 28-34, 1959 • 2 J. L. Howard et al., in: Antidepressants: Neurochemical,.Behavioral and Clinical Perspectives, herausgegeben von S. J. Enna et al., Raven Press N. Y., S. 107-120, 1981.

[2] = system: Amphetamininduzierte stereotype Verhalten; assay: Amphetamine potentiation (potentiation of amphetamine-induced stereotyped behaviour); type: in vivo, Ratte; conditions: ip; dose at which behaviour induced by 2 mg/kg DL-Amphetaminsulfat i. v. is enhanced by 50 %; rat; read-out: DE50 (the source's name)
Excerpt: as §1
2) Amphetamin-Potenzierung
Antidepressiv wirksame Substanzen potenzieren das Amphetamininduzierte stereotype Verhalten bei der Ratte.
Der angegebene DE50-Wert ist die Dosis, bei der das Amphetamininduzierte Verhalten nach Gabe von 2 mg/kg DL-Amphetaminsulfat i. v. um 50 % verstärkt ist.

SMILES	ED50 [1]	ED50 [2]
CC(NC(C)(C)Cc1ccccc1)C(=O)c1cccc(Cl)c1 (stereo not shown) [Beispiel 1, 1-(3-Chlorphenyl)-2-(1,1-dimethyl-2-phenylethylamino)propan-1-onhydrochlorid]	1 mg/kg	13 mg/kg
CC(Cc1ccccc1)NC(C)C(=O)c1cccc(Cl)c1 (stereo not shown) [Beispiel 2, 1-(3-Chlorphenyl)-2-(1-methyl-2-phenyl-ethylamino) propan-1-onhydrochlorid]	14 mg/kg	6 mg/kg
CC(NC(C)(C)Cc1ccc(Cl)cc1)C(=O)c1cccc(Cl)c1 (stereo not shown) [Beispiel 3, 1-(3-Chlorphenyl)-2-(1,1-dimethyl-2-(4-chlor-phenyl)ethylamino)propan-1-onhydrochlorid]	12 mg/kg	9 mg/kg
CC(NC(C)(C)Cc1ccccc1)C(=O)c1ccccc1 (stereo not shown) [Beispiel 4, 1-Phenyl-2-(1,1-dimethyl-2-phenylethylamino)-propan-1-onhydrochlorid]	19 mg/kg	–
COc1ccc(CC(C)(C)NC(C)C(=O)c2cccc(Cl)c2)cc1 (stereo not shown) [Beispiel 5, 1-(3-Chlorphenyl)-2-(1,1-dimethyl-2-(4-methoxyphenyl)ethylamino)propan-1-onhydrochlorid]	6.5 mg/kg	–
CC(NC(C)(C)Cc1ccccc1)C(=O)c1cccc(F)c1 (stereo not shown) [Beispiel 6, 1-(3-Fluorphenyl)-2-(1,1-dimethyl-2-phenylethylamino)propan-1-onhydrochlorid]	6 mg/kg	–
CC(NC(C)(C)Cc1ccccc1)C(=O)c1cccc(C(F)(F)F)c1 (stereo not shown) [Beispiel 7, 1-(3-Trifluormethylphenyl)-2-(1,1-dimethyl-2-phenylethylamino)propan-1-onhydrochlorid]	10 mg/kg	–
